# Test results: US20260193293A1, “PEPTIDES CAPABLE OF INHIBITING PROTEIN-PROTEIN INTERACTIONS AT GABAB1A SUBUNIT AND USES THEREOF” (UNIVERSITY OF COPENHAGEN, priority 2022, published 2026)
# Like-named read-outs stand apart in the source and are kept apart here. Non-standard residues stand in square brackets, D forms with d. Residues, ends and D or L forms follow the SMILES beside them. 2Nal = N[C@@H](Cc1ccc2ccccc2c1)C(=O)O; NMeR = CN[C@@H](CCCNC(=N)N)C(=O)O; NMeD = CN[C@@H](CC(=O)O)C(=O)O; Sar = CNCC(=O)O
# Molecular target: Sushi domains (SD1/2) protein
# Experiment: Fluorescence polarization (FP) competition assay with AJAP-1probe, calculated Ki
# Format: binding
# Method in brief: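 Competition against 25 nM TAMRA-labelled peptide probe binding SD1/2, in PBS pH 7.4 with 1% BSA at rt, read at 530/580 nm. IC50 from sigmoidal dose-response fits, at least triplicate; Ki calculated from IC50 using probe Kd from saturation binding.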
# [1] = Table 11, deep mutational scanning validation variants of AJAP-1WT, read-out: Ki (nM) mean ± SEM
# [2] = Table 6, elongation and truncation scan of PIANP binding epitope, read-out: Ki (nM) mean ± SEM
# [3] = Table 13, peptides for affinity maturation, read-out: Ki (nM) mean ± SEM
# [4] = Table 10, deep mutational scanning validation variants of APPWT, read-out: Ki (nM) mean ± SEM
# [5] = Table 9, Ala-, D-amino acids and N-methylation scans of PIANPWT, read-out: Ki (nM) mean ± SEM
compound,measurement,setting,value
CC[C@H](C)[C@H](NC(=O)[C@H](Cc1ccccc1)NC(=O)[C@H](CCC(=O)O)NC(=O)[C@@H](NC(=O)[C@H](CCC(=O)O)NC(C)=O)[C@@H](C)O)C(=O)N[C@@H](C)C(=O)N[C@@H](Cc1c[nH]c2ccccc12)C(=O)NCC(=O)N1CCC[C@H]1C(=O)N[C@@H](CO)C(=O)NCC(=O)N[C@@H](CC(=O)O)C(=O)N[C@@H](CCC(=O)O)C(=O)N[C@@H](CC(=O)O)C(N)=O [ETEFIAWGPSGDED] (Ac-ETEFIAWGPSGDED-NH2),Ki,[1],32 ± 1 nM
CC[C@H](C)[C@H](NC(=O)[C@H](Cc1ccccc1)NC(=O)[C@H](CCC(=O)O)NC(=O)[C@@H](NC(=O)[C@H](CCC(=O)O)NC(=O)[C@@H](NC(C)=O)[C@@H](C)O)[C@@H](C)O)C(=O)N[C@@H](C)C(=O)N[C@@H](Cc1c[nH]c2ccccc12)C(=O)NCC(=O)N1CCC[C@H]1C(=O)N[C@H](C(=O)NCC(=O)N[C@@H](CC(=O)O)C(=O)N[C@@H](CCC(=O)O)C(N)=O)[C@@H](C)O (Ac-TETEFIAWGPTGDE-NH2),Ki,"Table 5, elongation and truncation scan of AJAP-1 binding epitope, read-out: Ki (nM) mean ± SEM",69 ± 1 nM
CC[C@H](C)[C@H](NC(=O)[C@H](C)NC(=O)[C@H](Cc1c[nH]c2ccccc12)NC(=O)[C@@H]1CCCN1C(C)=O)C(=O)N[C@H](C(=O)N[C@@H](Cc1c[nH]c2ccccc12)C(=O)NCC(=O)N1CCC[C@H]1C(=O)N[C@H](C(=O)N[C@H](C(=O)N[C@@H](CO)C(=O)N[C@@H](CCCNC(=N)N)C(=O)N[C@@H](CCC(=O)O)C(=O)N[C@@H](CC(=O)O)C(=O)NCC(=O)NCC(=O)N[C@@H](CC(=O)O)C(=O)N1CCC[C@H]1C(=O)N[C@@H](CC(N)=O)C(=O)N[C@@H](CO)C(N)=O)C(C)C)[C@@H](C)O)C(C)C (Ac-PWAIVWGPTVSREDGGDPNS-NH2),Ki,[2],706 ± 16 nM
CC[C@H](C)[C@H](NC(=O)[C@H](Cc1ccccc1)NC(=O)[C@H](CCC(=O)O)NC(=O)[C@@H](NC(=O)[C@H](CCC(=O)O)NC(C)=O)[C@@H](C)O)C(=O)N[C@@H](C)C(=O)N[C@@H](Cc1c[nH]c2ccccc12)C(=O)NCC(=O)N1CCC[C@H]1C(=O)N[C@H](C(=O)N[C@H](C(=O)N[C@@H](CO)C(=O)N[C@@H](CCCNC(=N)N)C(=O)N[C@@H](CCC(=O)O)C(=O)N[C@@H](CC(=O)O)C(N)=O)C(C)C)[C@@H](C)O [ETEFIAWGPTVSRED] (Ac-ETEFIAWGPTVSRED-NH2),Ki,[3],148 ± 6 nM
CC(=O)N[C@@H](CC(=O)O)C(=O)N[C@H](C(=O)N[C@@H](Cc1c[nH]c2ccccc12)C(=O)N[C@@H](Cc1c[nH]c2ccccc12)C(=O)NCC(=O)NCC(=O)N[C@@H](C)C(=O)N[C@@H](CC(=O)O)C(=O)N[C@H](C(=O)N[C@@H](CC(=O)O)C(=O)N[C@@H](Cc1ccc(O)cc1)C(=O)N[C@@H](C)C(=O)N[C@@H](CC(=O)O)C(N)=O)[C@@H](C)O)C(C)C (Ac-DVWWGGADTDYAD-NH2),Ki,"Table 4, truncation and elongation scans of APP epitope, read-out: Ki (nM) mean ± SEM",6100 ± 307 nM
CC(=O)N[C@@H](CCC(=O)O)C(=O)N[C@@H](CC(=O)O)C(=O)N[C@@H](CC(=O)O)C(=O)N[C@@H](CO)C(=O)N[C@@H](CC(=O)O)C(=O)N[C@H](C(=O)N[C@@H](Cc1c[nH]c2ccccc12)C(=O)N[C@@H](Cc1c[nH]c2ccccc12)C(=O)NCC(=O)N1CCC[C@H]1C(=O)N[C@@H](C)C(=O)N[C@@H](CC(=O)O)C(=O)N[C@H](C(=O)N[C@@H](CC(=O)O)C(N)=O)[C@@H](C)O)C(C)C (Ac-EDDSDVWWGPADTD-NH2),Ki,[4],332 ± 13 nM
CC(=O)N[C@H](C(=O)N[C@@H](Cc1c[nH]c2ccccc12)C(=O)NCC(=O)N1CCC[C@H]1C(=O)N[C@H](C(=O)N[C@H](C(=O)N[C@@H](CO)C(=O)N[C@@H](CCCNC(=N)N)C(=O)N[C@@H](CCC(=O)O)C(=O)N[C@@H](CC(=O)O)C(=O)NCC(N)=O)C(C)C)[C@@H](C)O)C(C)C (Ac-VWGPTVSREDG-NH2),Ki,[2],1740 ± 62 nM
CC(=O)N[C@@H](CCCCN)C(=O)N[C@@H](CC(=O)O)C(=O)N[C@@H](CC(=O)O)C(=O)N[C@@H](CO)C(=O)N[C@@H](CC(=O)O)C(=O)N[C@H](C(=O)N[C@@H](Cc1c[nH]c2ccccc12)C(=O)N[C@@H](Cc1c[nH]c2ccccc12)C(=O)NCC(=O)NCC(=O)N[C@@H](C)C(=O)N[C@@H](CC(=O)O)C(=O)N[C@H](C(=O)N[C@@H](CC(=O)O)C(N)=O)[C@@H](C)O)C(C)C (Ac-KDDSDVWWGGADTD-NH2),Ki,[4],1520 ± 53 nM
CC[C@H](C)[C@H](NC(=O)[C@H](C)NC(C)=O)C(=O)N[C@H](C(=O)N[C@@H](Cc1c[nH]c2ccccc12)C(=O)NCC(=O)N1CCC[C@H]1C(=O)N[C@H](C(=O)N[C@H](C(=O)N[C@@H](CO)C(=O)N[C@@H](CCCNC(=N)N)C(=O)N[C@@H](CCC(=O)O)C(=O)N[C@@H](CC(=O)O)C(=O)NCC(=O)NCC(=O)N[C@@H](CC(=O)O)C(N)=O)C(C)C)[C@@H](C)O)C(C)C (Ac-AIVWGPTVSREDGGD-NH2),Ki,"Table 3, SPOT hit validation and previously reported peptides, read-out: Ki (nM) mean ± SEM",637 ± 45 nM
CC[C@H](C)[C@H](NC(=O)[C@H](C)NC(=O)[C@H](Cc1c[nH]c2ccccc12)NC(=O)[C@@H]1CCCN1C(C)=O)C(=O)N[C@H](C(=O)N[C@@H](Cc1c[nH]c2ccccc12)C(=O)NCC(=O)N1CCC[C@H]1C(=O)N[C@H](C(=O)N[C@H](C(=O)N[C@@H](CO)C(=O)N(C)[C@@H](CCCNC(=N)N)C(=O)N[C@@H](CCC(=O)O)C(=O)N[C@@H](CC(=O)O)C(N)=O)C(C)C)[C@@H](C)O)C(C)C (Ac-PWAIVWGPTVS[NMeR]ED-NH2),Ki,[5],502 ± 15 nM
CC[C@H](C)[C@H](NC(=O)[C@H](C)NC(=O)[C@H](Cc1c[nH]c2ccccc12)NC(=O)[C@@H]1CCCN1C(C)=O)C(=O)N[C@H](C(=O)N[C@@H](Cc1c[nH]c2ccccc12)C(=O)N(C)CC(=O)N1CCC[C@H]1C(=O)N[C@H](C(=O)N[C@H](C(=O)N[C@@H](CO)C(=O)N[C@@H](CCCNC(=N)N)C(=O)N[C@@H](CCC(=O)O)C(=O)N[C@@H](CC(=O)O)C(N)=O)C(C)C)[C@@H](C)O)C(C)C [PWAIVW(N-Me-G)PTVSRED] (Ac-PWAIVW[Sar]PTVSRED-NH2),Ki,[5],58300 ± 4410 nM
CC[C@H](C)[C@H](NC(=O)[C@H](C)NC(=O)[C@H](Cc1c[nH]c2ccccc12)NC(=O)[C@@H]1CCCN1C(C)=O)C(=O)N[C@H](C(=O)N[C@@H](Cc1c[nH]c2ccccc12)C(=O)NCC(=O)N1CCC[C@H]1C(=O)N[C@H](C(=O)NCC(=O)N[C@@H](CC(=O)O)C(=O)N[C@@H](CCC(=O)O)C(=O)N[C@@H](CC(=O)O)C(N)=O)[C@@H](C)O)C(C)C [PWAIVWGPTGDED] (Ac-PWAIVWGPTGDED-NH2),Ki,[3],222 ± 1 nM
CC[C@H](C)[C@H](NC(=O)[C@H](Cc1ccccc1)NC(=O)[C@H](CCC(=O)O)NC(=O)[C@@H](NC(=O)[C@H](CCC(=O)O)NC(C)=O)[C@@H](C)O)C(=O)N[C@@H](C)C(=O)N[C@@H](Cc1c[nH]c2ccccc12)C(=O)NCC(=O)N1CCC[C@H]1C(=O)N[C@H](C(=O)NCC(=O)N[C@@H](CC(=O)O)C(=O)N[C@@H](CCC(=O)O)C(=O)N(C)[C@@H](CC(=O)O)C(N)=O)[C@@H](C)O (Ac-ETEFIAWGPTGDE[NMeD]-NH2),Ki,"Table 8, Ala-, D-amino acids and N-methylation scans of AJAP-1WT, read-out: Ki (nM) mean ± SEM",29 ± 1 nM
CC[C@H](C)[C@H](NC(=O)[C@H](Cc1ccccc1)NC(=O)[C@H](CCC(=O)O)NC(=O)[C@@H](NC(=O)[C@H](CCC(=O)O)NC(C)=O)[C@@H](C)O)C(=O)N[C@@H](C)C(=O)N[C@@H](Cc1c[nH]c2ccccc12)C(=O)NCC(=O)N1CCC[C@H]1C(=O)N[C@H](C(=O)NCC(=O)N[C@@H](Cc1c[nH]cn1)C(=O)N[C@@H](CCC(=O)O)C(=O)N[C@@H](CC(=O)O)C(N)=O)[C@@H](C)O [ETEFIAWGPTGHED] (Ac-ETEFIAWGPTGHED-NH2),Ki,[1],60 ± 4 nM
CC(=O)N[C@@H](CCC(=O)O)C(=O)N[C@@H](CC(=O)O)C(=O)N[C@@H](CC(=O)O)C(=O)N[C@@H](Cc1c[nH]c2ccccc12)C(=O)N[C@@H](CC(=O)O)C(=O)N[C@H](C(=O)N[C@@H](Cc1c[nH]c2ccccc12)C(=O)N[C@@H](Cc1c[nH]c2ccccc12)C(=O)NCC(=O)NCC(=O)N[C@@H](C)C(=O)N[C@@H](CC(=O)O)C(=O)N[C@H](C(=O)N[C@@H](CC(=O)O)C(N)=O)[C@@H](C)O)C(C)C (Ac-EDDWDVWWGGADTD-NH2),Ki,[4],257 ± 4 nM
CC[C@H](C)[C@H](NC(=O)[C@H](C)NC(=O)[C@H](Cc1c[nH]c2ccccc12)NC(=O)[C@@H]1CCCN1C(C)=O)C(=O)N[C@H](C(=O)N[C@@H](Cc1c[nH]c2ccccc12)C(=O)NCC(=O)N[C@@H](C)C(=O)N[C@H](C(=O)N[C@H](C(=O)N[C@@H](CO)C(=O)N[C@@H](CCCNC(=N)N)C(=O)N[C@@H](CCC(=O)O)C(=O)N[C@@H](CC(=O)O)C(N)=O)C(C)C)[C@@H](C)O)C(C)C [PWAIVWGATVSRED] (Ac-PWAIVWGATVSRED-NH2),Ki,[5],1500 ± 34 nM
CC(=O)N[C@@H](CCC(=O)O)C(=O)N[C@@H](CC(=O)O)C(=O)N[C@@H](CC(=O)O)C(=O)N[C@@H](C)C(=O)N[C@@H](CC(=O)O)C(=O)N[C@H](C(=O)N[C@@H](Cc1c[nH]c2ccccc12)C(=O)N[C@@H](Cc1c[nH]c2ccccc12)C(=O)NCC(=O)NCC(=O)N[C@@H](C)C(=O)N[C@@H](CC(=O)O)C(=O)N[C@H](C(=O)N[C@@H](CC(=O)O)C(N)=O)[C@@H](C)O)C(C)C (Ac-EDDADVWWGGADTD-NH2),Ki,"Table 7, Ala-, D-amino acids and N-methylation scans of APPWT, read-out: Ki (nM) mean ± SEM",660 ± 21 nM
CC(=O)N[C@@H](CCC(=O)O)C(=O)N[C@@H](CC(=O)O)C(=O)N[C@@H](CC(=O)O)C(=O)N[C@@H](CO)C(=O)N[C@@H](Cc1ccc2ccccc2c1)C(=O)N[C@H](C(=O)N[C@@H](Cc1c[nH]c2ccccc12)C(=O)N[C@@H](Cc1c[nH]c2ccccc12)C(=O)NCC(=O)NCC(=O)N[C@@H](C)C(=O)N[C@@H](CC(=O)O)C(=O)N[C@H](C(=O)N[C@@H](CC(=O)O)C(N)=O)[C@@H](C)O)C(C)C (Ac-EDDS[2Nal]VWWGGADTD-NH2),Ki,"purified peptides, read-out: Ki",43 nM
same,fold increased affinity compared to Asp207Trp,relative to Asp207Trp mutant of APPWT,2 fold
